Measurements taken from patent publication US4288609A, “Quaternary ammonium derivatives of adamantane with antimicrobic activity” (priority 1976, dated 1981).
Where two headings read alike, the source gives them in different places.

Key:
[1] = system: Nicrosporum Canis ATCC 11621; test: MIC mildews, Microsporum canis (Table 2); assay type: cell-based; conditions: Sabourand broth
Procedure: (§1) The method for evaluating the activity in vitro against bacteria, fungi and protozoa consists in introducing calculated quantities of the substance, the activity of which it is desired to test, into culture media already inoculated with a predetermined number of test germs.
(§2) After 24 or 48 hours of incubation at 30° or 37° C., according to the micro-organism being tested, it is possible to evaluate the growth of the same in the culture broth; in this manner the minimum concentration (M.I.C.) which inhibits the growth of the micro-organisms in vitro is determined.
(§3) Inoculation with Trichophyton mentagrophytes and Microsporum canis was effected in a ratio of 1% of the volume of medium used.
(§4) For the fungi Sabourand broth was used as a culture medium, whilst for the protozoa Kupferberg Trichomonas broth with 5% of horse serum was used.

[2] = system: Trich. Vaginalis ISM 66/22; test: MIC protozoa, Trichomonas vaginalis (Table 2); assay type: cell-based; conditions: Trichomonas vaginalis, +10% serum (head); Kupferberg Trichomonas broth with 5% of horse serum; read-out: MIC
Procedure: as §1, §2
(§5) Inoculation with Trichomonas vaginalis and Trichomonas foetus, obtained from cultures transplanted every other day to make them lively, was effected in a ratio of 3.5% of the volume of medium used.
as §4

Diplococcus Pneum. ISM = test: M.I.C. in vitro, gram+ Diplococcus Pneum. (Table 1); assay type: cell-based; conditions: read-out: M.I.C.
Procedure: as §1, §2
(§6) In table 1 there are recorded the M.I.C. values in γ/ml of the products subject of the present invention, against certain gram+ and gram- bacterial strains, some of which are pathogenic towards human beings.

Staph.Aureus Tour = test: M.I.C. in vitro, gram+ Staph. Aureus (Table 1); assay type: cell-based, Staphylococcus Aureus; conditions: Staphylococcus aureus, read-out: M.I.C.
Procedure: as §1, §2, §6

[3] = system: Trych. Mentagr. 1st.Pastuer; test: MIC mildews, Trichophyton mentagrophytes (Table 2); assay type: cell-based; conditions: Sabourand broth
Procedure: as §1, §2, §3, §4

Candida Albic. SKF 2270 = test: MIC yeasts, Candida albicans (Table 2); assay type: cell-based; conditions: Sabourand broth
Procedure: as §1, §2
(§7) Inoculation with Candida albicans or Candida pseudotropicalis was made by diluting cultures grown for 24 h at 30° C. (cellular density inoculated 10^3 /ml).
as §4

Klens. Pneum. ISM = test: M.I.C. in vitro, gram- Klens. Pneum. (Table 1); assay type: cell-based; conditions: read-out: M.I.C.
Procedure: as §1, §2, §6

Proteus Vulc. ATCC 881 = test: M.I.C. in vitro, gram- Proteus Vulc. (Table 1); assay type: cell-based; conditions: read-out: M.I.C.
Procedure: as §1, §2, §6

Pseudom.Aer. ATCC 1014 = test: M.I.C. in vitro, gram- Pseudom. Aer. (Table 1); assay type: cell-based, Pseudomonas Aeruginosa; conditions: for MIC: Pseudomonas aeruginosa, read-out: M.I.C.
Procedure: as §1, §2, §6

[4] = system: Candida Pseudotrop. ATCC 2512; test: MIC yeasts, Candida pseudotropicalis (Table 2); assay type: cell-based; conditions: Sabourand broth
Procedure: as §1, §2, §7, §4

[5] = Acute oral toxicity in mice (Table 4); conditions: mouse, in vivo, po, LD50, oral, mice, 14 days
Procedure: The substances were administered orally to groups of 10 female mice CF1 of average weight of about 20 grams, in aqueous solution and in such way that the total volume administered would be in each case 1 ml/100 g of weight.

Esch. Coli. SKF 12140 = test: M.I.C. in vitro, gram- Esch. Coli (Table 1); assay type: cell-based, Escherichia Coli; conditions: Escherichia coli, read-out: M.I.C.
Procedure: as §1, §2, §6

Trich. Foetus ISM 66/23 = test: MIC protozoa, Trichomonas foetus (Table 2); assay type: cell-based; conditions: +10% serum (head), Kupferberg Trichomonas broth with 5% of horse serum
Procedure: as §1, §2, §5, §4

[6] = system: Streptococ. Henclyt. 0203; test: M.I.C. in vitro, gram+ Streptococ. Henclyt. (Table 1); assay type: cell-based; conditions: for MIC: read-out: M.I.C.
Procedure: as §1, §2, §6

[7] = Candida, without serum, read-out: MIC
[8] = Candida, ATCC2512, +10% serum, read-out: MIC
[9] = Microsporum canis, ATCC11621, +10% serum, read-out: MIC
[10] = Microsporum canis, ATCC11621, without serum, read-out: MIC
[11] = Trichophyton mentagrophytes, +10% serum, read-out: MIC
[12] = Trichophyton mentagrophytes, without serum, read-out: MIC
[13] = Candida, +10% serum, read-out: MIC
[14] = Candida, ATCC2512, without serum, read-out: MIC
[15] = Tritrichomonas foetus, read-out: MIC

Structure (SMILES)	MIC [2]	MIC (Diplococcus Pneum. ISM; +10% serum)	MIC (Diplococcus Pneum. ISM; without serum)	MIC (Staph.Aureus Tour; +10% serum)	MIC (Staph.Aureus Tour; without serum)	MIC (Candida Albic. SKF 2270; [7])	MIC (Klens. Pneum. ISM; +10% serum)	MIC (Klens. Pneum. ISM; without serum)	MIC (Proteus Vulc. ATCC 881; +10% serum)	MIC (Proteus Vulc. ATCC 881; without serum)	MIC (Pseudom.Aer. ATCC 1014; ATCC1014, +10% serum)	MIC [4, 8]	LD50 at 336 h [5]	MIC (Esch. Coli. SKF 12140; +10% serum)	MIC (Esch. Coli. SKF 12140; without serum)	MIC [1, 9]	MIC [1, 10]	MIC [3, 11]	MIC [3, 12]	MIC (Candida Albic. SKF 2270; [13])	further results
CCCCCCCCCC[N+](CC)(CC)CCNC(=O)C12CC3CC(CC(C3)C1)C2 [Example 9, n-Decyl-diethyl-(1-adamantane-carbonylamido)-ethylammonium bromide]	5 µg/mL	5 µg/mL	1 µg/mL	5 µg/mL	0.1 µg/mL	1 µg/mL	50 µg/mL	10 µg/mL	100 µg/mL	5 µg/mL	50 µg/mL	50 µg/mL	980 mg/kg	50 µg/mL	5 µg/mL						MIC ([1]; +10% serum): 20 µg/mL; MIC ([1]; without serum): 0.2 µg/mL; MIC ([3]; +10% serum): 10 µg/mL; MIC ([3]; without serum): 0.2 µg/mL; MIC (Candida Albic. SKF 2270; +10% serum): 20 µg/mL; M.I.C. (Pseudom.Aer. ATCC 1014; without serum): 10 µg/mL; MIC ([4]; without serum): 0.2 µg/mL; MIC (Trich. Foetus ISM 66/23): 2 µg/mL; M.I.C. ([6]; +10% serum): 0.5 µg/mL; M.I.C. ([6]; without serum): 0.1 µg/mL
CCCCCCCCCCCC[N+](CC)(CC)CCOC(=O)C12CC3CC(CC(C3)C1)C2 [Example 6, n-Dodecyl-diethyl-(1-adamantane-carboxy)-ethyl-ammonium bromide]	10 µg/mL	5 µg/mL	2 µg/mL	10 µg/mL	0.1 µg/mL	2 µg/mL	100 µg/mL	10 µg/mL	100 µg/mL	20 µg/mL	100 µg/mL	50 µg/mL	935 mg/kg	100 µg/mL	10 µg/mL	50 µg/mL	0.5 µg/mL	20 µg/mL	0.5 µg/mL	50 µg/mL	MIC (Pseudom.Aer. ATCC 1014; ATCC1014, without serum): 50 µg/mL; MIC [4, 14]: 0.5 µg/mL; MIC (Trich. Foetus ISM 66/23; [15]): 5 µg/mL; MIC ([6]; +10% serum): 2 µg/mL; MIC ([6]; without serum): 0.5 µg/mL
CCCCCCCCCC[N+](C)(C)CCNC(=O)C12CC3CC(CC(C3)C1)C2 [Example 7]	5 µg/mL	10 µg/mL	0.5 µg/mL	5 µg/mL	0.2 µg/mL	5 µg/mL	50 µg/mL	10 µg/mL	100 µg/mL	10 µg/mL	100 µg/mL	50 µg/mL	955 mg/kg	100 µg/mL	10 µg/mL	20 µg/mL	0.5 µg/mL	20 µg/mL	0.5 µg/mL	50 µg/mL	MIC (Pseudom.Aer. ATCC 1014; ATCC1014, without serum): 50 µg/mL; MIC [4, 14]: 0.2 µg/mL; MIC (Trich. Foetus ISM 66/23; [15]): 2 µg/mL; MIC ([6]; +10% serum): 2 µg/mL; MIC ([6]; without serum): 0.2 µg/mL
CCCCCCCCCC[N+](CC)(CC)CCOC(=O)C12CC3CC(CC(C3)C1)C2 [Example 5, n-Decyl-diethyl-(1-adamantane-carboxy)-ethyl-ammonium bromide]	10 µg/mL	10 µg/mL	0.5 µg/mL	5 µg/mL	< 0.1 µg/mL	0.5 µg/mL	100 µg/mL	10 µg/mL	100 µg/mL	10 µg/mL	100 µg/mL	50 µg/mL	750 mg/kg	100 µg/mL	5 µg/mL	20 µg/mL	0.1 µg/mL	10 µg/mL	0.1 µg/mL	50 µg/mL	MIC (Pseudom.Aer. ATCC 1014; ATCC1014, without serum): 50 µg/mL; MIC [4, 14]: 0.1 µg/mL; MIC (Trich. Foetus ISM 66/23; [15]): 5 µg/mL; MIC ([6]; +10% serum): 0.5 µg/mL; MIC ([6]; without serum): < 0.1 µg/mL
CCCCCCCCCCCC[N+](CC)(CC)CCNC(=O)C12CC3CC(CC(C3)C1)C2 [Example 12, n-Dodecyl-diethyl-(1-adamantane-carbonylamido)-ethylammonium bromide]	5 µg/mL	20 µg/mL	2 µg/mL	10 µg/mL	0.2 µg/mL	1 µg/mL	100 µg/mL	5 µg/mL	100 µg/mL	5 µg/mL	100 µg/mL	50 µg/mL	890 mg/kg	100 µg/mL	10 µg/mL	20 µg/mL	0.5 µg/mL	20 µg/mL	0.2 µg/mL	20 µg/mL	MIC (Pseudom.Aer. ATCC 1014; ATCC1014, without serum): 20 µg/mL; MIC [4, 14]: 0.1 µg/mL; MIC (Trich. Foetus ISM 66/23; [15]): 5 µg/mL; MIC ([6]; +10% serum): 5 µg/mL; MIC ([6]; without serum): 0.2 µg/mL
CCCCCCCCCCC[N+](CC)(CC)CCNC(=O)C12CC3CC(CC(C3)C1)C2 [Example 11, n-Undecyl-diethyl-(1-adamantane-carbonylamido)-ethylammonium bromide]	5 µg/mL	5 µg/mL	1 µg/mL	10 µg/mL	< 0.1 µg/mL	1 µg/mL	100 µg/mL	5 µg/mL	100 µg/mL	10 µg/mL	100 µg/mL	20 µg/mL	935 mg/kg	100 µg/mL	5 µg/mL	20 µg/mL	0.2 µg/mL	10 µg/mL	0.1 µg/mL	20 µg/mL	MIC (Pseudom.Aer. ATCC 1014; ATCC1014, without serum): 20 µg/mL; MIC [4, 14]: < 0.1 µg/mL; MIC (Trich. Foetus ISM 66/23; [15]): 5 µg/mL; MIC ([6]; +10% serum): 2 µg/mL; MIC ([6]; without serum): < 0.1 µg/mL
